Laboratory results published in BigSolDB 2.1.

Clc1cc(Cl)cc(Cl)c1
solubility (mole fraction)
Conditions	in acetone	in cyclohexane	in ethyl acetate	in isobutanol	in isopropanol	in n-butanol	in n-propanol	in toluene
273.15 K	0.0419	–	0.0928	0.0246	0.0144	0.036	0.0211	0.169
275.65 K	0.0472	–	0.102	0.028	0.0167	0.0406	0.0238	0.184
278.15 K	0.0524	–	0.113	0.0321	0.0195	0.0467	0.0273	0.199
280.65 K	0.0581	0.131	0.123	0.0367	0.0225	0.0529	0.0313	0.218
283.15 K	0.0644	0.147	0.137	0.042	0.0256	0.0592	0.0359	0.24
285.65 K	0.0718	0.165	0.151	0.0478	0.0297	0.0679	0.0406	0.26
288.15 K	0.079	0.186	0.164	0.0545	0.0339	0.0767	0.0466	0.287
290.65 K	0.0876	0.207	0.179	0.0616	0.0384	0.0852	0.0532	0.311
293.15 K	0.0963	0.231	0.195	0.0708	0.0441	0.0969	0.0598	0.337
295.65 K	0.106	0.255	0.213	0.0804	0.0509	0.107	0.0677	0.368
298.15 K	0.116	0.286	0.234	0.091	0.058	0.122	0.0764	0.399
300.65 K	0.129	0.318	0.253	0.102	0.0649	0.136	0.0853	0.427
303.15 K	0.14	0.35	0.274	0.117	0.074	0.15	0.0973	0.463
305.65 K	0.154	0.391	0.298	0.131	0.0849	0.166	0.109	0.5
308.15 K	0.171	0.434	0.325	0.147	0.0969	0.185	0.122	0.539
310.65 K	0.192	0.481	0.352	0.166	0.11	0.207	0.138	0.575
313.15 K	0.213	0.528	0.38	0.191	0.127	0.233	0.158	0.619
